In brackets after ≈: the same amount, converted by molar mass.
Experiments:
[1] = test system: Streptococcus pyogenes; experiment: Experimental infection in mice, subcutaneous ED50; assay type: in vivo; details: two doses
Protocol: (§1) The new derivatives of this invention have also shown in vivo antimicrobial activity against experimental bacterial infections. When two doses of test compound were administered to mice in experimental infections, the activity observed was measured as an ED50 value [effective dose in mg/kg to protect 50% of the test animals: see Warren Wick, et al., J. Bacteriol. 81, 233-235 (1961)].

[2] = test system: Staphylococcus aueus; experiment: Experimental infection in mice, subcutaneous ED50; assay type: in vivo; details: two doses
Protocol: as §1

[3] = test system: Streptococcus pneumoniae; experiment: Experimental infection in mice, subcutaneous ED50; assay type: in vivo; details: two doses
Protocol: as §1

[4] = test system: Streptococcus faecalis 2041; assay type: cell-based
Excerpt: (§2) Table I summarizes the minimal inhibitory concentrations (MIC's) at which the two illustrative compounds, anhydro-LY146032 and isomer-LY146032, inhibit certain organisms, as determined by standard agar-dilution assays.

[5] = test system: Staphylacoccus aureus X400 (methicillin-resistant strain); assay type: cell-based
Excerpt: as §2

[6] = test system: Staphylacoccus aureus V41 (penicillin-resistant strain); assay type: cell-based
Excerpt: as §2

[7] = test system: Staphylacoccus aureus XL1; assay type: cell-based
Excerpt: as §2

[8] = test system: Staphylacoccus epidermidis 222; assay type: cell-based
Excerpt: as §2

[9] = test system: Streptococcus pyogenes C203; assay type: cell-based
Excerpt: as §2

[10] = test system: Streptococcus faecalis X66; assay type: cell-based
Excerpt: as §2

[11] = test system: Haemophilus influenzae 76 (ampicillin-resistant strain); experiment: Agar-dilution MIC; assay type: cell-based; design: unit not given beside the values
Excerpt: as §2

[12] = test system: Haemophilus influenzae CL (ampicillin-sensitive strain); experiment: Agar-dilution MIC; assay type: cell-based
Excerpt: as §2

MIC [4] [µg/mL]	MIC [5] [µg/mL]	MIC [6] [µg/mL]	MIC [7] [µg/mL]	MIC [8] [µg/mL]	MIC [9] [µg/mL]	MIC [10] [µg/mL]	MIC [11]	MIC [12]	Compound	Subcutaneous ED50 [1] [mg/kg]	Subcutaneous ED50 [2] [mg/kg]	Subcutaneous ED50 [3] [mg/kg]
32 (≈ 19.7 µM)	8 (≈ 4.94 µM)	8 (≈ 4.94 µM)	8 (≈ 4.94 µM)	8 (≈ 4.94 µM)	2 (≈ 1.23 µM)	128 (≈ 79 µM)	—^ (>128)	—^f (>128)	CCCCCCCCCC(=O)N[C@@H](Cc1c[nH]c2ccccc12)C(=O)N[C@@H](CC(N)=O)C(=O)N[C@@H](CC(=O)O)C(=O)N[C@@H]1C(=O)NCC(=O)N[C@@H](CCCN)C(=O)N[C@@H](CC(=O)O)C(=O)N[C@H](C)C(=O)N[C@H](C(=O)O)CC(=O)NCC(=O)N[C@H](CO)C(=O)N[C@@H]([C@H](C)CC(=O)O)C(=O)N[C@@H](CC(=O)c2ccccc2N)C(=O)O[C@@H]1C [Isomer-LY146032]	<1.25	10.68	3.40
16 (≈ 9.98 µM)	8 (≈ 4.99 µM)	4 (≈ 2.5 µM)	4 (≈ 2.5 µM)	4 (≈ 2.5 µM)	1 (≈ 0.624 µM)	64 (≈ 39.9 µM)	— (>128)	— (>128)	CCCCCCCCCC(=O)N[C@@H](Cc1c[nH]c2ccccc12)C(=O)N[C@@H](CC(N)=O)C(=O)N[C@@H](CC(=O)O)C(=O)N[C@@H]1C(=O)NCC(=O)N[C@@H](CCCN)C(=O)N[C@@H](CC(=O)O)C(=O)N[C@H](C)C(=O)N[C@H]2CC(=O)N(CC(=O)N[C@H](CO)C(=O)N[C@@H]([C@H](C)CC(=O)O)C(=O)N[C@@H](CC(=O)c3ccccc3N)C(=O)O[C@@H]1C)C2=O [Anhydro-LY146032]	1.15	9.05	3.36
